Like-named read-outs stand apart in the source and are kept apart here.
Columns and labels:
Assay type in all cases: cell-based, human
[1] = test system: DU-145 (Prostate cancer cell line); assay: Anti-proliferative assay (Cell Titer-Glo), DU-145
Experimental: Cell culture & Reagents: All cell lines, used for the anti-proliferative screen, were obtained from American Type Culture Collection (ATCC). HeLa (Cervical cancer cell line), MCF-7 (Breast cancer cell line) and DU-145 (Prostate cancer cell line) were cultured in Dulbecco's modified Eagle's medium (DMEM, GIBCO), containing 10% fetal bovine serum (FBS; Life Technologies), penicillin and streptomycin (10,000 U/mL), at 37° C. and in 5% CO2. Cell Titer-Glo® Luminescent Cell Viability Assay kit (Cat No. G7573) was purchased from Promega to determine the number of viable cells in culture based on quantitation of the ATP present, which signals the presence of metabolically active cells.
Anti-Proliferative assay: For anti-proliferative screening, 2500 cells per well (For HeLa and DU-145 cell lines) and 5000 cells per well (for MCF-7 cell line) numbers of cells were seeded in a white opaque plate and incubated for 24 Hrs in 5% CO2 incubator at 37° C. After 24 Hrs, compound dilutions were prepared as per the required concentrations in cell culture medium (DMEM) and diluted compounds were added and incubated with cells for 72 Hrs at 37° C. in 5% CO2 incubator in the same 96 well-plate. After 72 Hrs, Cell Titer-Glo® reagent vial was reconstituted with 100 mL of Cell Titer Glo buffer and 100 μL of prepared reagent was added to each well. After incubating at room temperature for 30 minutes, luminescence was captured using luminescence plate reader (EnVision® Multilabel Plate Reader from Perkin Elmer). Generated data was exported to the excel file and data was analyzed using Graph Pad Prism to calculate IC50 value of the unknown inhibitor.
Compounds were screened against different cancer cell lines [HeLa, DU-145, MCF-7 and SKOV3] for anti-proliferative activity using luminescence based cell proliferation assay using Promega Glo kit are shown in FIG. 3.

[2] = test system: HeLa (Cervical cancer cell line); assay: Anti-proliferative assay (Cell Titer-Glo), HeLa
[3] = test system: MCF-7 (Breast cancer cell line); assay: Anti-proliferative assay (Cell Titer-Glo), MCF-7
[4] = test system: SKOV3 (Ovarian cancer cells); assay: Anti-proliferative assay, SKOV3
[5] = Table 1, reference compounds, read-out: IC50 DU-145 cells

SMILES	IC50 [1, 5]	IC50 ([2]; Table 1, reference compounds, read-out: IC50 HeLa cells)	IC50 ([3]; Table 1, reference compounds, read-out: IC50 MCF-7 cells)	IC50 ([4]; Table 1, reference compounds, read-out: IC50 SKOV3 cells)	IC50 ([2]; Homo sapiens, HeLa, Table 1, reference compounds, read-out: IC50 HeLa cells)	IC50 ([2]; Homo sapiens, HeLa, Table 2, reference compounds section, read-out: HeLa IC50)	IC50 ([3]; Homo sapiens, MCF7, Table 1, reference compounds, read-out: IC50 MCF-7 cells)	IC50 ([3]; Homo sapiens, MCF7, Table 2, reference compounds section, read-out: MCF-7 IC50)	IC50 ([4]; Homo sapiens, SK-OV-3, Table 1, reference compounds, read-out: IC50 SKOV3 cells)	IC50 ([4]; Homo sapiens, SK-OV-3, Table 2, reference compounds section, read-out: SKOV3 IC50)	IC50 ([1]; Homo sapiens, DU-145, Table 1, reference compounds, read-out: IC50 DU-145 cells)	IC50 ([1]; Homo sapiens, DU-145, Table 2, reference compounds section, read-out: DU-145 IC50)
O=C(CCCCCCC(=O)Nc1ccccc1)NO [SAHA]	796 nM											
CC(/C=C/C(=O)NO)=C\[C@@H](C)C(=O)c1ccc(N(C)C)cc1 [TSA, Trichostatin A]	539 nM	124 nM	153 nM	242 nM								
COc1ccc(C[C@H](N)C(=O)N[C@H]2[C@@H](O)[C@H](n3cnc4c(N(C)C)ncnc43)O[C@@H]2CO)cc1 [Puromycin]					619 nM	387 nM	408 nM	254 nM	296 nM	296 nM	967 nM	382 nM

Reference: patent US11072583B2, “Indole (sulfomyl) n-hydroxy benzamide derivatives as selective HDAC inhibitors” (COUNCIL OF SCIENTIFIC & INDUSTRIAL RESEARCH, priority 2017, dated 2021)
